Results from patent publication US20140357512A1, “HISTONE DEACETYLASE (HDAC) BIOMARKERS IN MULTIPLE MYELOMA” (priority 2013, published 2014).

Test system: human myeloma cell line MM.1S
Test: SILAC acetylated-lysine peptide profiling, HDAC inhibitor vs DMSO (light/heavy ratio)
Format: cell-based
Description: An embodiment of the invention comprises utilizing the SILAC method in order to quantitate changes in protein expression between two or more populations of cells. The SILAC method is a technique based on mass spectrometry that detects differences in protein abundance among samples using non-radioactive isotopic labeling. The SILAC method is known in the art, and described in detail in Ong et al., “Stable Isotope Labeling by Amino Acids in Cell Culture, SILAC, as a Simple and Accurate Approach to Expression Proteomics”, Molecular & Cellular Proteomics, vol. 1, pp. 376-386 (2002), which is incorporated herein by reference in its entirety.
Briefly, the SILAC method involves growing two populations of cells in cell culture. The first population of cells is grown in growth media containing normal amino acids (“normal media”). The second population of cells is grown in media lacking a standard essential amino acid (such as lysine), but is then supplemented with a non-radioactive, isotopically labeled form of that essential amino acid (such as lysine labeled with ^13C atoms, rather than normal ^12C atoms), which is called “heavy media”. When the two populations of cells are each growing in the medium, they incorporate the amino acids into all of their proteins. The growth of cells maintained in the heavy media is no different from that in normal media. All peptides containing the heavy amino acids are heavier than their normal counterparts. The cells from each of the two populations of cells are lysed. The lysates from each of the two cell populations are then combined. The combined cell lysates are then analyzed by mass spectrometry. Pairs of chemically identical peptides of different stable isotope composition can be differentiated in a mass spectrometer due to their difference in mass. The ratio of peak intensities in the mass spectrum for such peptide pairs reflects the abundance ratio for the two proteins.
This example describes SILAC studies that were performed to compare the effects of three different HDAC inhibitors (Compound A, Compound B, and tubastatin A) to a control on a human multiple myeloma cell line. The HDAC inhibitors were also compared amongst themselves to determine differences in their effects.
A human myeloma cell line MM.1S was grown using either ^12C (light) or ^13C (heavy) lysine containing culture medium. The “heavy” cells were treated with DMSO as the control, and the “light” cells were treated with a single HDAC inhibitor at 37° C. for 6 hours. The heavy and light cells were lysed, and the lysates were mixed in 1:1 ratio and digested with the protease trypsin. The acetylated lysine containing peptides (due to the action of the HDAC inhibitor) in the digested peptide pool were captured by a non-specific anti-acetylated lysine antibody cocktail (the antibodies identify both light and heavy acetylated peptides), and subjected to mass spectrometry analysis in order to identify thousands of individual peptides.
Thousands of peptides were identified in pairs (^12C and ^13C) due to their known mass differences. The amino acid sequence and quantitative ratio (Light/Heavy) of a given peptide in two differentially treated cell lysates were then determined and annotated with their possible protein (gene) sources.
As stated above, three HDAC inhibitors (Compound A, Compound B, and Tubastatin A) were used. Thus, the SILAC method was performed three times, with a different HDAC inhibitor compared to a control each time. Accordingly, there are three pairs of quantitative data in the table below, i.e., Compound A:DMSO, Compound B:DMSO, and Tubastatin A:DMSO. A cut-off of 1.30 fold of change (increase or decrease) was then used to determine “changed” or “+” in the table, and any peptides with a fold of change less than 1.3 fold were determined to be “unchanged” or “0” in the table. Those peptides that were not identified were marked as “NA” in the table. […]

SMILES: O=C(NO)c1cnc(NC2(c3cccc(F)c3)CCCCC2)nc1 [Compound B, 2-((1-(3-fluorophenyl)cyclohexyl)amino)-N-hydroxypyrimidine-5-carboxamide]
- L/H ratio of acetylated peptide ([…](ac)HLSASQK (SEQ ID NO: 381), Cytochrome c oxidase subunit 4 isoform 1 mitochondrial [53], COX4I1): −0.63 log 2
- light to heavy ratio (L/H ratio) of acetylated peptide, log 2 scale ([…](ac)IFK (SEQ ID NO: 157), cDNA FLJ59630 highly similar to Growth hormone-inducible transmembrane protein [76], GHITM): 0.00
- light to heavy ratio (L/H ratio) of acetylated peptide, log 2 scale ([…](ac)IVIQK (SEQ ID NO: 165), Isoform A1-B of Heterogeneous nuclear ribonucleoprotein A1 [161], HNRNPA1): 0.00
- light to heavy ratio (L/H ratio) of acetylated peptide, log 2 scale ([…](ac)K (SEQ ID NO: 242), Vimentin [235], VIM): 0.00
- L/H ratio of acetylated peptide ([…](ac)K (SEQ ID NO: 427), Profilin-1 [126], PFN1): 0.58 log 2
- light to heavy ratio (L/H ratio) of acetylated peptide, log 2 scale ([…](ac)LFR (SEQ ID NO: 136), B-cell receptor-associated protein 31 [95], BCAP31): 0.00
- L/H ratio of acetylated peptide ([…](ac)LHIVK (SEQ ID NO: 378), Chloride intracellular channel protein 4 [194], CLIC4): 0.51 log 2
- light to heavy ratio (L/H ratio) of acetylated peptide, log 2 scale ([…](ac)LLPHIR (SEQ ID NO: 208), 60S acidic ribosomal protein P0 [77], RPLP0): 0.00
- L/H ratio of acetylated peptide ([…](ac)VNSK (SEQ ID NO: 430), Isoform 1 of Inorganic pyrophosphatase 2 mitochondrial [69], PPA2): 0.91 log 2
- L/H ratio of acetylated peptide ([…](ac)WK (SEQ ID NO: 453), Lupus La protein [328], SSB): 0.57 log 2
- L/H ratio of acetylated peptide ([…](ac)YLNFVK (SEQ ID NO: 405), Endoplasmin [428], HSP90B1): 0.77 log 2
- L/H ratio of acetylated peptide ([…](ac)YQEALAK (SEQ ID NO: 450), Superoxide dismutase [Mn] mitochondrial [68], SOD2): −0.67 log 2
- light to heavy ratio (L/H ratio) of acetylated peptide, log 2 scale ([…](ac)[…] (SEQ ID NO: 132), ATP synthase subunit b mitochondrial [221], ATP5F1): 0.00
- light to heavy ratio (L/H ratio) of acetylated peptide, log 2 scale ([…](ac)[…] (SEQ ID NO: 139), cDNA FLJ55574 highly similar to Calnexin [217], CANX): 0.00
- light to heavy ratio (L/H ratio) of acetylated peptide, log 2 scale ([…](ac)[…] (SEQ ID NO: 145), Isoform 1 of Cellular nucleic acid-binding protein [118], CNBP): 0.00
- L/H ratio of acetylated peptide ([…](ac)[…] (SEQ ID NO: 372), Calreticulin [98], CALR): −0.43 log 2
- L/H ratio of acetylated peptide ([…](ac)[…] (SEQ ID NO: 387), D-dopachrome decarboxylase [87], DDT): −0.44 log 2
- L/H ratio of acetylated peptide ([…](ac)[…] (SEQ ID NO: 399), Guanine nucleotide-binding protein subunit beta-2-like 1 [139], GNB2L1): 0.54 log 2
- L/H ratio of acetylated peptide ([…](ac)[…] (SEQ ID NO: 408), Isoform 1 of Isocitrate dehydro-genase [NAD] subunit alpha mitochondrial [77], IDH3A): −0.44 log 2
- L/H ratio of acetylated peptide ([…](ac)[…] (SEQ ID NO: 455), Isoform 1 of Translocon-associated protein subunit alpha [102], SSR1): −0.88 log 2
- L/H ratio of acetylated peptide ([…](ac)[…] (SEQ ID NO: 466), Voltage-dependent anion-selective channel protein 1 [266], VDAC1): −0.66 log 2
- L/H ratio of acetylated peptide ([…](ac)[…] (SEQ ID NO: 469), Isoform 1 of Voltage-dependent anion-selective channel protein 3 [266], VDAC3): −0.71 log 2
- light to heavy ratio (L/H ratio) of acetylated peptide YDGK(ac)WEVEEMK (SEQ ID NO: 274) (cDNA FLJ55574 highly similar to Calnexin [138], CANX, drug:DMSO): 0.00 log 2
- light to heavy ratio (L/H ratio) of acetylated peptide LNK(ac)PFLFDTK (SEQ ID NO: 327) (cDNA FLJ55574 highly similar to Calnexin [172], CANX, drug:DMSO): 0.43 log 2
- light to heavy ratio (L/H ratio) of acetylated peptide NFK(ac)SISK (SEQ ID NO: 356) (cDNA FLJ56425 highly similar to Very-long-chain specific acyl-CoAdehydrogenase mitochondrial [681], ACADVL, drug:DMSO): 0.44 log 2
- light to heavy ratio (L/H ratio) of acetylated peptide LPSSTK(ac)SGWPR (SEQ ID NO: 500) (cDNA FLJ75110 highly similar to Homo sapiens PHD finger protein 15 (PHF15) mRNA [38], gene PHF15, inhibitor:DMSO): 0.00 log 2
- light to heavy ratio (L/H ratio) of acetylated peptide IINEVSK(ac)[…] (SEQ ID NO: 341) (cDNA FLJ77177 highly similar to Homo sapiens arginine-rich mutated in early stage tumors (ARMET) mRNA [97], MANF, drug:DMSO): −0.58 log 2
- light to heavy ratio (L/H ratio) of acetylated peptide TNVPVK(ac)LFAR (SEQ ID NO: 348) (cDNA FLJ77422 highly similar to Homo sapiens RNA binding protein autoantigenic (hnRNP-associated with lethal yellow homolog (mouse)) transcript variant 1 mRNA (Fragment) [165], RALY, drug:DMSO): 0.39 log 2
- light to heavy ratio (L/H ratio) of acetylated peptide EIAQEFK(ac)TDLR (SEQ ID NO: 337) (histone cluster 2 H3 pseudogene 2 [80], HIST2H3PS2, drug:DMSO): −0.49 log 2
- light to heavy ratio (L/H ratio) of acetylated peptide SK(ac)SDPIMLLK (SEQ ID NO: 255) (pyruvate dehydrogenase E1 component subunit alpha somatic form mitochondrial isoform 2 precursor [351], PDHA1, drug:DMSO): 0.00 log 2
- light to heavy ratio (L/H ratio) of acetylated peptide VTNLLMLK(ac)GK (SEQ ID NO: 350) (regulator of differentiation 1 isoform 2 [64], ROD1, drug:DMSO): 0.83 log 2
- light to heavy ratio (L/H ratio) of acetylated peptide LTSLNVK(ac)YNNDK (SEQ ID NO: 590) (regulator of differentiation 1 isoform 2 [236], gene ROD1, inhibitor:DMSO): 0.00 log 2
- light to heavy ratio (L/H ratio) of acetylated peptide GWLK(ac)[…] (SEQ ID NO: 278) (triosephosphate isomerase isoform 2 [231], TPI1, TPI1P1, drug:DMSO): 0.00 log 2
